In patent publication US20040097468A1, “Method of treating osteoporosis and other bone disorders with upfront loading of bisphosphonates, and kits for such treatment” (priority 2002, published 2004):

What was measured:
humans = assay: Spinal (vertebral) BMD, loading vs standard doses of bisphosphonates over one year; type: in vivo, human
Description: FIG. 4. illustrates the effects of standard recommended dose of risedronate (35 mg once a week), vs. loading dose of risedronate (for doses, see the section on oral administration of bisphosphonates) on vertebral BMD.
This will then be followed up with once weekly administration (i.e., infrequent administration) of a single dose of similar strength, what is currently used on a longer-term basis.

osteoporotic patients = details: intravenous injections 0.5 or 1.0 mg every 3 months for 3 years; cited from earlier work

O=P(O)(O)C(O)(Cc1cccnc1)P(=O)(O)O [risedronate, 1-hydroxy-2-(3-pyridinyl)-ethylidene-1,1-bisphosphonic acid]
Increase in spinal BMD (humans; risedronate loading dose, 3 months): +1.5% | Increase in spinal BMD (humans; risedronate loading dose, 6 months): +4.0% | Increase in spinal BMD (humans; risedronate loading dose, 12 months): +5.6% | Increase in spinal BMD (humans; risedronate standard dose (35 mg once a week), 3 months): +0.4% | Increase in spinal BMD (humans; risedronate standard dose (35 mg once a week), 6 months): +2.2% | Increase in spinal BMD (humans; risedronate standard dose (35 mg once a week), 12 months): +4.3%

CCCCCN(C)CCC(O)(P(=O)(O)O)P(=O)(O)O [ibandronate, 1-hydroxy-3-(N-methyl-N-pentylamino)propylidene-1,1-bisphosphonic acid]
Change in BMD (osteoporotic patients): moderate increase in BMD | Change in incidence of new osteoporotic fractures (osteoporotic patients): small, but not significant, decrease

NCCCC(O)(P(=O)(O)O)P(=O)(O)O [alendronate, 4-amino-1-hydroxybutylidene-1,1-bisphosphonic acid monosodium trihydrate]
Increase in spinal BMD (humans; alendronate loading dose, 3 months): +1.2% | Increase in spinal BMD (humans; alendronate loading dose, 6 months): +3.6% | Increase in spinal BMD (humans; alendronate loading dose, 12 months): +5.8% | Increase in spinal BMD (humans; alendronate standard dose (70 mg once a week), 3 months): +0.4% | Increase in spinal BMD (humans; alendronate standard dose (70 mg once a week), 6 months): +1.1% | Increase in spinal BMD (humans; alendronate standard dose (70 mg once a week), 12 months): +4.5%
